Patent US6890969B2, “Polymer emulsion preservation using cationic compounds” (Air Products Polymers, L.P., priority 2000, dated 2005)
Where a name gives a salt, the structure may show the parent alone. Read-outs that look alike come from different tables or passages of the source. Marks after values point to notes of the source that are not given here.

How the values were obtained:
GABL = GABL biochallenge test of preserved polymer emulsions (streak plate / RABIT), inoculations passed; assay type: cell-based, Gluconoacetobacter liquefaciens; settings: for Inoculations Passed: PVOH-stabilized VAE emulsion, <1000 ppm vinyl acetate
Description: GABL Inoculum Preparation
A recently isolated culture of GABL was grown on potato dextrose agar slants by inoculating the agar surface. The potato dextrose agar slants were incubated for 48-72 hours at 25° C. After this incubation period, GABL cells were harvested using quarter strength Ringers solution to wash the GABL colonies off of the agar surface. The washings from each slant were combined into one sterile, Erlenmeyer flask. The number of slants and the amount of quarter strength Ringers solution used to wash off the GABL colonies was adjusted during the procedure to obtain a final microbial viable count in the range of 10^8-10^10 CFU/mL.
Rapid Automated Bacterial Impedance Technique (RABIT): supplied by Microbiology International, manufactured by Don Whitley Scientific, Ltd.
RABIT utilizes the principal of impedance microbiology to detect and assess microbial activity in a given sample. Using the RABIT, microbial metabolism is monitored by measuring the amount of carbon dioxide produced by actively respiring microorganisms. The electrodes in the RABIT test cells are partially covered with alkaline agar containing potassium hydroxide. As inoculated test samples are monitored on the RABIT, carbon dioxide produced from microbial metabolism is absorbed by the alkaline agar resulting in a change in conductivity. Conductivity is monitored with time and the time to reach a pre-specified rate of reduction in conductivity is termed the time to detection (TTD). Therefore, the shorter the TTD, the higher the number of microorganisms present. Failure can be defined as three successive decreases in conductivity equal to or greater than a pre-specified value (−10 microSiemens is recommended by the manufacturer) at any time during the 72 hour RABIT monitoring period. Alternatively, failure can be defined as a pre-specified total change in conductivity.
Biochallenge Test Procedure
Samples (50 g each) of each test emulsion containing a test antimicrobial agent were inoculated with 1.0 mL of the GABL inoculum. After mixing well, the samples were then placed in a 30° C. incubator. After 1, 2, and 6 days of incubation each sample was streak plated onto potato dextrose agar to assess the level of surviving GABL microorganisms. The potato dextrose agar plates were incubated at 25° C. for 48-72 hours before assessing the growth. On the seventh day of incubation, each test emulsion sample was inoculated again with a freshly prepared GABL inoculum, mixed well, then placed back into the incubator. The samples were again streak plated onto potato dextrose agar after incubating for 1, 2, and 6 days since the second inoculation. On the fourteenth day after the test was initiated, the test emulsions were inoculated a third time with another freshly prepared GABL inoculum and then placed back into the incubator. The samples were again streak plated onto potato dextrose agar after 1, 2, 6, and 13 days of incubation since the third inoculation to assess surviving microorganisms. Test failure is defined as a microbial viable count >300 CFU/10 μL observed from the potato dextrose agar streak plate assessments.
Biochallenge Test Procedure Via the RABIT
A small amount of a microbial nutrient was added to each emulsion test sample (50 g) containing a test antimicrobial agent. The resulting samples were then inoculated with 1.0 mL of the GABL inoculum. After mixing well, an aliquot (5 g) of each test sample was placed into separate RABIT indirect conductivity tubes. The indirect conductivity tubes were then placed into the RABIT incubator modules set at 30° C. and the conductivity changes monitored for up to 72 hours. The remainder of each test sample was stored in a 30° C. incubator during the RABIT monitoring period. At the completion of the RABIT monitoring period, the aliquot samples were placed back into their respective sample containers. Each test sample was then re-inoculated with a freshly prepared GABL inoculum. […]

mixed bacterial pool = assay type: cell-based; settings: PVOH-stabilized VAE emulsion Tg 0, <1000 ppm vinyl acetate
Description: The preservative efficacy of several cationic compounds in a poly(vinyl alcohol)-stabilized VAE copolymer emulsion (Tg=0) containing less than 1000 ppm vinyl acetate was assessed according to the following procedure:
Aeromonas hydrophilia, Alcaligenes faecalis, Corynebacterium ammoniagenes, Enterobacter aerogenes, Escherichia coli, Klebsiella pneumoniae, Pseudomonas aeruginosa, Proteus vulgaris, Providencia rettgeri, Pseudomonas stutzeri, Shewanella putrefaciens, Serratia liquefaciens, Acinetobacter baumannii, Burkholderia cepacia, Chryseobacterium meningosepticum, Sphingobacterium spiritivorum, Ralstonia pickettii, and GABL.
Mixed Bacterial Pool Inoculum Preparation
Each bacterial culture was individually grown on nutrient agar slants, except GABL was grown on potato dextrose agar slants, by inoculating the agar surfaces. The nutrient agar slants were incubated for 24-48 hours at 30° C. and the potato dextrose agar slants were incubated for 48-72 hours at 25° C. After this incubation period, the cells were harvested using quarter strength Ringers solution to wash the bacterial colonies off the agar surface. The washings from all of the slants were combined into one sterile, Erlenmeyer flask. The number of slants and the amount of Ringers Solution used to wash off the bacterial colonies is adjusted during the procedure to obtain a final mixed microbial viable count in the range of 10^8-10^10 CFU/mL.
Bacterial Biochallenge Test Procedure
The RABIT procedures were followed as described in Example 1, except the mixed bacterial pool inoculum was used to inoculate the test samples instead of the GABL inoculum.

SMILES: CCCCCCCCCCCCNC(=N)N [DGH, n-dodecylguanidine hydrochloride]
- # of GABL Inoculations Passed (GABL; DGH 100 ppm, emulsion VA/E, Tg 0 °C, H2O2/SFS, PVOH (first such line of Table 2)): 3
- # of GABL Inoculations Passed (GABL; DGH 100 ppm, emulsion VA/E, Tg 0 °C, H2O2/SFS, PVOH (second such line of Table 2)): 2
- # of GABL Inoculations Passed (GABL; DGH 100 ppm, emulsion VA/E, Tg 0 °C, H2O2/SFS, PVOH/nonionic surfactant): 1
- # of GABL Inoculations Passed (GABL; DGH 100 ppm, emulsion VA/E, Tg 4 °C, KPS/SFS, Nonionic surfactant/HEC): 0
- # of GABL Inoculations Passed (GABL; DGH 100 ppm, emulsion VA/E, Tg 14 °C, H2O2/SFS, PVOH): 5
- # of GABL Inoculations Passed (GABL; DGH 100 ppm, emulsion VA/E, Tg 20 °C, H2O2/SFS, PVOH, stopped after 4th inoculation): ≧4^b
- # of GABL Inoculations Passed (GABL; DGH 100 ppm, emulsion VA/E, Tg −5 °C, H2O2/SFS, PVOH/nonionic surfactant): 1
- # of GABL Inoculations Passed (GABL; DGH 100 ppm, emulsion VA/E, Tg −15 °C, H2O2/SFS, PVOH): 2
- # of GABL Inoculations Passed (GABL; DGH 100 ppm, emulsion VA/E/MA/SVS, Tg 5 °C, KPS/SFS, Nonionic surfactant): 0
- # of GABL Inoculations Passed (GABL; DGH 150 ppm, emulsion VA/E, Tg 0 °C, H2O2/SFS, PVOH (first such line of Table 2)): 4
- # of GABL Inoculations Passed (GABL; DGH 150 ppm, emulsion VA/E, Tg 0 °C, H2O2/SFS, PVOH/nonionic surfactant): 2
- # of GABL Inoculations Passed (GABL; DGH 150 ppm, emulsion VA/E, Tg 4 °C, KPS/SFS, Nonionic surfactant/HEC): 0
- # of GABL Inoculations Passed (GABL; DGH 150 ppm, emulsion VA/E, Tg 14 °C, H2O2/SFS, PVOH, stopped after 7th inoculation): ≧7^a
- # of GABL Inoculations Passed (GABL; DGH 150 ppm, emulsion VA/E, Tg 20 °C, H2O2/SFS, PVOH, stopped after 4th inoculation): ≧4^b
- # of GABL Inoculations Passed (GABL; DGH 150 ppm, emulsion VA/E, Tg −5 °C, H2O2/SFS, PVOH/nonionic surfactant): 3
- # of GABL Inoculations Passed (GABL; DGH 150 ppm, emulsion VA/E, Tg −15 °C, H2O2/SFS, PVOH): 5
- # of GABL Inoculations Passed (GABL; DGH 150 ppm, emulsion VA/E/MA/SVS, Tg 5 °C, KPS/SFS, Nonionic surfactant): 0
- # of GABL Inoculations Passed (GABL; DGH 200 ppm, emulsion VA/E, Tg 0 °C, H2O2/SFS, PVOH (first such line of Table 2), stopped after 7th inoculation): ≧7^a
- # of GABL Inoculations Passed (GABL; DGH 200 ppm, emulsion VA/E, Tg 0 °C, H2O2/SFS, PVOH (second such line of Table 2)): 7
- # of GABL Inoculations Passed (GABL; DGH 200 ppm, emulsion VA/E, Tg 0 °C, H2O2/SFS, PVOH/nonionic surfactant): 2
- # of GABL Inoculations Passed (GABL; DGH 200 ppm, emulsion VA/E, Tg 4 °C, KPS/SFS, Nonionic surfactant/HEC): 0
- # of GABL Inoculations Passed (GABL; DGH 200 ppm, emulsion VA/E, Tg 8 °C, KPS/SFS, PVOH): 2
- # of GABL Inoculations Passed (GABL; DGH 200 ppm, emulsion VA/E, Tg 14 °C, H2O2/SFS, PVOH, stopped after 7th inoculation): ≧7^a
- # of GABL Inoculations Passed (GABL; DGH 200 ppm, emulsion VA/E, Tg 20 °C, H2O2/SFS, PVOH, stopped after 4th inoculation): ≧4^b
- # of GABL Inoculations Passed (GABL; DGH 200 ppm, emulsion VA/E, Tg −5 °C, H2O2/SFS, PVOH/nonionic surfactant): 3
- # of GABL Inoculations Passed (GABL; DGH 200 ppm, emulsion VA/E, Tg −15 °C, H2O2/SFS, PVOH, stopped after 7th inoculation): ≧7^a
- # of GABL Inoculations Passed (GABL; DGH 200 ppm, emulsion VA/E/AA, Tg 0 °C, H2O2/SFS, PVOH/nonionic surfactant): 0
- # of GABL Inoculations Passed (GABL; DGH 200 ppm, emulsion VA/E/MA/SVS, Tg 5 °C, KPS/SFS, Nonionic surfactant): 0
- # of GABL Inoculations Passed (GABL; DGH 200 ppm, emulsion VA/E/SVS/NMA, Tg 10 °C, TBHP/sodium erythorbate, Anionic sulfate surfactant): 0
- Inoculations Passed (GABL; Tg 0 °C, biocide dosage 50 ppm active): 1
- Inoculations Passed (GABL; Tg 0 °C, biocide dosage 100 ppm active): 2
- Inoculations Passed (GABL; Tg 0 °C, biocide dosage 200 ppm active): 7
- Inoculations Passed (mixed bacterial pool; active biocide dosage 100 ppm): 2
- Inoculations Passed (mixed bacterial pool; active biocide dosage 200 ppm): 7
